Measured values: US20100311580A1, “Active Compound Combinations” (Bayer CropScience AG, priority 2007, published 2010)

Experiments:
Type in all cases: in vivo
[1] = test system: Phaedon cochleariae; experiment: Phaedon cochleariae test (spray on cabbage leaves); conditions: larvae
Method: Solvent: 7 parts by weight of dimethylformamide
Emulsifier: 2 parts by weight of alkylaryl polyglycolether
(§1) To produce a suitable preparation of active compound, 1 part by weight of active compound is mixed with the stated amount of solvent and emulsifier, and the concentrate is diluted with emulsifier-containing water to the desired concentration.
Cabbage leaves (Brassica oleracea) are treated by being sprayed with the preparation of the active compound at the desired concentration and are infested with larvae of the mustard beetle (Phaedon cochleariae) as long as the leaves are still moist.
After the specified period of time, the mortality in % is determined. 100% means that all the beetle larvae have been killed; 0% means that none of the beetle larvae have been killed.

[2] = test system: Blumeria graminis f. sp. hordei; experiment: Blumeria test (barley)/SAR 5d; conditions: 1000 ppm, inoculation 5 days after spraying, evaluated 7 days after inoculation
Method: Solvent: 50 parts by weight of n,n-dimethylacetamid Emulsifier: 1 part by weight of alkylaryl polyglycol ether
To produce a suitable preparation of active compound, 1 part by weight of active compound or active compound combination is mixed with the stated amounts of solvent and emulsifier, and the concentrate is diluted with water to the desired concentration.
To test for systemic activated resistance, young plants are sprayed with the preparation of active compound or active compound combination at the stated rate of application. After the spray coating has dried on, the plants are placed in a greenhouse at a temperature of approximately 18° C. and a relative atmospheric humidity of approximately 80%.
5 days after spraying, the plants are dusted with spores of Blumeria graminis f. sp. hordei. The plants then remain in a greenhouse at a temperature of approximately 18° C. and a relative atmospheric humidity of approximately 80% to promote the development of mildew pustules.
The test is evaluated 7 days after the inoculation, 1. and 2. leaf separated. 0% means an efficacy with corresponds to that of the control while an efficacy of 100% means that no disease is observed.

[3] = test system: Nilaparvata lugens; experiment: Nilaparvata lugens test (spray on rice plants); conditions: larvae
Method: Solvent: 7 parts by weight of dimethylformamide Emulsifier: 2 parts by weight of alkylaryl polyglycolether
as §1
Rice plants (Oryza sativa) are treated by being sprayed with the preparation of the active compound at the desired concentration and are infested with larvae of the Brown plant hopper (Nilaparvata lugens) as long as the leaves are still moist.
After the specified period of time, the mortality in % is determined. 100% means that all the hopper larvae have been killed; 0% means that none of the hopper larvae have been killed.

Structure (SMILES)	Efficacy in % ([2]; 1st leaf) [%]	Efficacy in % ([2]; 2nd leaf) [%]	Efficacy in % after 3 d (mortality) ([1]; 4 ppm) [%]	also measured
N#Cc1ccccc1NC(=O)c1snc(Cl)c1Cl [Isotianil, 3,4-dichloro-N-(2-cyanophenyl)-5-isothiazolecarboxamide]	44	44		Efficacy in % after 3 d (mortality) ([1]; 200 ppm): 0%; Efficacy in % after 6 d (mortality) ([1]; 200 ppm): 0%; Efficacy in % after 3 d (mortality) ([3]; 200 ppm): 0%
CN/C(=N\[N+](=O)[O-])NCc1cnc(Cl)s1 [Clothianidin, clothianidin]			15	
Cc1cc(C(F)(C(F)(F)F)C(F)(F)F)ccc1NC(=O)c1cccc(I)c1C(=O)NC(C)(C)CS(C)(=O)=O [Flubendiamide, flubendiamide]	22	22	0	Efficacy in % after 3 d (mortality) ([1]; 0.8 ppm): 0%; Efficacy in % after 6 d (mortality) ([1]; 4 ppm): 0%; Efficacy in % after 3 d (mortality) ([3]; 0.16 ppm): 0%
N#C/N=C1\SCCN1Cc1ccc(Cl)nc1 [Thiacloprid, thiacloprid]			5	
O=[N+]([O-])NC1=NCCN1Cc1ccc(Cl)nc1 [Imidacloprid, imidacloprid]				Efficacy in % after 3 d (mortality) ([3]; 0.8 ppm): 0%
